27 targets from the supplement of paper PMC12463676, “Small-molecule dissolution of stress granules by redox modulation benefits ALS models” (Nature Chemical Biology, 2025) can be followed below.

Compound in test [1]: NC(=O)CCCCC1CCSS1 [lipoamide]
The test can be described thus: thermal stability z-score vs DMSO; higher = more thermally stabilized by treatment. The conditions noted are these: HeLa, lipoamide concentration 100 µM. How it is done: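 Cellular thermal proteome profiling in HeLa cells. Cells were treated with 100 µM lipoamide for 1 h, with or without 1 mM arsenate for a further 1 h, then heated to ten temperatures (37-66.3 °C), and soluble protein was quantified by TMT mass spectrometry relative to 0.1% DMSO controls. The thermal stability score (sum of log2 fold changes minus the abundance score) was transformed to a z-score; mean of n = 3 experiments.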

Compound in test [2]: O=[As]([O-])(O)O.[K+] [potassium arsenate]
The test is described as above. The conditions noted are these: HeLa; arsenate concentration 1 mM. As for the experimental part:
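Cellular thermal proteome profiling in HeLa cells treated with 1 mM arsenate for 1 h (DMSO pretreatment), heated to ten temperatures (37-66.3 °C). Soluble protein was quantified by TMT mass spectrometry relative to DMSO controls; the thermal stability score was transformed to a z-score; mean of n = 3 experiments.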

[3] abbreviates: arsenate co-treatment: 1 mM arsenate 1 h.
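Further: each temperature applied for 3 min, abundance score taken as mean log2 fold change at the two lowest temperatures, z-score obtained by mean subtraction and division by SD.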

UniProt P06396, sequence (P06396 whole entry): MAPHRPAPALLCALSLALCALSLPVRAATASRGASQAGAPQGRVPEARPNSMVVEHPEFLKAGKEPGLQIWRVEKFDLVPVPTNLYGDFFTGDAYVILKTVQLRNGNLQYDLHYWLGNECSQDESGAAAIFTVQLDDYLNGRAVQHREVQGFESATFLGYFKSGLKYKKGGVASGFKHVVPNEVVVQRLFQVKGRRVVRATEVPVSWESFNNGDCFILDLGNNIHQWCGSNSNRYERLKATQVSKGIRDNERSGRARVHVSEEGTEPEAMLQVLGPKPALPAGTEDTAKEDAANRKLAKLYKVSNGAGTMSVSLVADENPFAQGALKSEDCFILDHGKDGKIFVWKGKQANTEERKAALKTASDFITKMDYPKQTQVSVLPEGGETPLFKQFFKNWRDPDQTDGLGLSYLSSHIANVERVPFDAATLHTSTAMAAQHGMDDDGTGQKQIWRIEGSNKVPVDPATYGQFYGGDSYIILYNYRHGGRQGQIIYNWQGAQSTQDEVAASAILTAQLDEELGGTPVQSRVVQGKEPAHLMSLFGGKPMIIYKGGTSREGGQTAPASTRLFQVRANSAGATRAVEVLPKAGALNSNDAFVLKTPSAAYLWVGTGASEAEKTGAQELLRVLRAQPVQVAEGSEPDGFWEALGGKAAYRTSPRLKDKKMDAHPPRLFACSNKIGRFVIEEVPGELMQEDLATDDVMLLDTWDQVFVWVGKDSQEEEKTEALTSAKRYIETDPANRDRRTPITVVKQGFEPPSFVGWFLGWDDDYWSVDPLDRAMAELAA
UniProt Q9H6K4, sequence (Q9H6K4 whole entry): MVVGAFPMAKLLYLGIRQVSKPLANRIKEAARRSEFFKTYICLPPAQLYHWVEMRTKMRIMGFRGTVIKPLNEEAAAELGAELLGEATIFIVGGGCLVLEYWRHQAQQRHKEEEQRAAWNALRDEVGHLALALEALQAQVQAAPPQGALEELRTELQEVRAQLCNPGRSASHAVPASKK
UniProt Q12789, sequence (Q12789 whole entry): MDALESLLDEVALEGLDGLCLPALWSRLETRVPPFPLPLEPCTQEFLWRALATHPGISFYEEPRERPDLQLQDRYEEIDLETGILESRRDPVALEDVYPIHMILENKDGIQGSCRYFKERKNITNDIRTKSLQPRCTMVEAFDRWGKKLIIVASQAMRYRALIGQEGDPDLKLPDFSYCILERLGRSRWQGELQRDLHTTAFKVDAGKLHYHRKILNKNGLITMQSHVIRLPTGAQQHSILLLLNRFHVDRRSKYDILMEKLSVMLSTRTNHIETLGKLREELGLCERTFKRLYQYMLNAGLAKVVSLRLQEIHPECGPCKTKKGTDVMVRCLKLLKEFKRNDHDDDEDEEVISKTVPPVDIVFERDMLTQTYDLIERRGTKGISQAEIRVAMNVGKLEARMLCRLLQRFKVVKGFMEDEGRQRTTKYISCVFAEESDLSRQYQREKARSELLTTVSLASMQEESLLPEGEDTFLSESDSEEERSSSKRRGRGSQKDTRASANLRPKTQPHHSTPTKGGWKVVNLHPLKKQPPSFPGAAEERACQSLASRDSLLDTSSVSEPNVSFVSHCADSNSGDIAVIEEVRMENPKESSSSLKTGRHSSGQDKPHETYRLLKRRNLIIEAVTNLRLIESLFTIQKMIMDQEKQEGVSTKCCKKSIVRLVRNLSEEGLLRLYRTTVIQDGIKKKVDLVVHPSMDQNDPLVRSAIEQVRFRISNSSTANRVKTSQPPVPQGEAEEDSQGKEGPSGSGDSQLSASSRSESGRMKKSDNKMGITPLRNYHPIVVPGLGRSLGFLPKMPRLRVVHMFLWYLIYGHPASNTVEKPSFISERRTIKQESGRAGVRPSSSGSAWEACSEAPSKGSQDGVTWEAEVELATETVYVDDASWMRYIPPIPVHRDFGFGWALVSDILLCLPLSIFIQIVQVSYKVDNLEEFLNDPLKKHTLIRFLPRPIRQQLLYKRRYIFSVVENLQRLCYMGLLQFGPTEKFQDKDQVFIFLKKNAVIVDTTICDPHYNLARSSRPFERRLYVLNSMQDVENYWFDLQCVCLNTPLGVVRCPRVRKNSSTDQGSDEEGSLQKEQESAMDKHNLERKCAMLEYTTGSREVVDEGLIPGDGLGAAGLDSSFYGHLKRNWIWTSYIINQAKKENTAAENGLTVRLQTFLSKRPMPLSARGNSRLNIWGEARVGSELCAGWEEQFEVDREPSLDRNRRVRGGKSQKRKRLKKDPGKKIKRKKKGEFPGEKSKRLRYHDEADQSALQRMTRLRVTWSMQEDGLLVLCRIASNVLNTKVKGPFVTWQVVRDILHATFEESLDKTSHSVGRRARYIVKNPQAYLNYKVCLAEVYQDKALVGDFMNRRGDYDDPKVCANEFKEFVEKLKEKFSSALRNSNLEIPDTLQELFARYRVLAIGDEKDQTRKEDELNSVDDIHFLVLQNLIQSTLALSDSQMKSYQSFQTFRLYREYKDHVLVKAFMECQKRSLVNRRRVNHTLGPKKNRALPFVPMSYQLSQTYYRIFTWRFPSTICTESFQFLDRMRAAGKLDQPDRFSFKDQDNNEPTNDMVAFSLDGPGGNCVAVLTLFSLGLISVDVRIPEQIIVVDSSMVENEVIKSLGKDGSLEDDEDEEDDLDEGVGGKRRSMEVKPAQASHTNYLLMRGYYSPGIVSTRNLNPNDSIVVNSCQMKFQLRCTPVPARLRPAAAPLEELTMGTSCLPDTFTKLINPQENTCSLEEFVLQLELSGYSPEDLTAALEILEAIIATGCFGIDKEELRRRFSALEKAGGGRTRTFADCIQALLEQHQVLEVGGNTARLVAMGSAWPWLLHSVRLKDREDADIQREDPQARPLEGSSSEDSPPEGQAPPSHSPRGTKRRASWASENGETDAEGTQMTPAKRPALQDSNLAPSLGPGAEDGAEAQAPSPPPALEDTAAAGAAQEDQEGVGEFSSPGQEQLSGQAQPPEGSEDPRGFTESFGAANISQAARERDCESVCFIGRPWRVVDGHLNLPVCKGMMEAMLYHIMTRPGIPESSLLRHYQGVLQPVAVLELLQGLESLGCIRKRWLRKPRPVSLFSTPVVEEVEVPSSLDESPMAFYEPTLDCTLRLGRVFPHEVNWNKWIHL
UniProt P53609, sequence (P53609 whole entry, looked up): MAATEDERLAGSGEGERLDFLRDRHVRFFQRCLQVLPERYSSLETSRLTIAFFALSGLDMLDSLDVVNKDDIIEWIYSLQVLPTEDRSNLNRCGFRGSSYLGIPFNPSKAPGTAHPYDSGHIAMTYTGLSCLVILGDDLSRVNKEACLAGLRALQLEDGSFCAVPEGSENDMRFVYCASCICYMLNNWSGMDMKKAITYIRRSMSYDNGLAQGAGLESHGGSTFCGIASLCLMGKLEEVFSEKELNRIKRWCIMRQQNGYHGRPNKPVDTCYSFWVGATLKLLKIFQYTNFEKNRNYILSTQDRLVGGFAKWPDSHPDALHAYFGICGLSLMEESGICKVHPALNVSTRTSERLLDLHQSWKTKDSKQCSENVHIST
UniProt Q8TEA8, sequence (Q8TEA8 whole entry): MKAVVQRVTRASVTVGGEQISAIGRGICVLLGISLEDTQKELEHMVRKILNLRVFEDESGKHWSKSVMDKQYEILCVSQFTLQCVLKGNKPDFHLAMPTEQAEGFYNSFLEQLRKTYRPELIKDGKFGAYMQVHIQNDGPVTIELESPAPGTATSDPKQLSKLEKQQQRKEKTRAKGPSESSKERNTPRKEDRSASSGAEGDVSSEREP
UniProt Q13443, sequence (Q13443 whole entry): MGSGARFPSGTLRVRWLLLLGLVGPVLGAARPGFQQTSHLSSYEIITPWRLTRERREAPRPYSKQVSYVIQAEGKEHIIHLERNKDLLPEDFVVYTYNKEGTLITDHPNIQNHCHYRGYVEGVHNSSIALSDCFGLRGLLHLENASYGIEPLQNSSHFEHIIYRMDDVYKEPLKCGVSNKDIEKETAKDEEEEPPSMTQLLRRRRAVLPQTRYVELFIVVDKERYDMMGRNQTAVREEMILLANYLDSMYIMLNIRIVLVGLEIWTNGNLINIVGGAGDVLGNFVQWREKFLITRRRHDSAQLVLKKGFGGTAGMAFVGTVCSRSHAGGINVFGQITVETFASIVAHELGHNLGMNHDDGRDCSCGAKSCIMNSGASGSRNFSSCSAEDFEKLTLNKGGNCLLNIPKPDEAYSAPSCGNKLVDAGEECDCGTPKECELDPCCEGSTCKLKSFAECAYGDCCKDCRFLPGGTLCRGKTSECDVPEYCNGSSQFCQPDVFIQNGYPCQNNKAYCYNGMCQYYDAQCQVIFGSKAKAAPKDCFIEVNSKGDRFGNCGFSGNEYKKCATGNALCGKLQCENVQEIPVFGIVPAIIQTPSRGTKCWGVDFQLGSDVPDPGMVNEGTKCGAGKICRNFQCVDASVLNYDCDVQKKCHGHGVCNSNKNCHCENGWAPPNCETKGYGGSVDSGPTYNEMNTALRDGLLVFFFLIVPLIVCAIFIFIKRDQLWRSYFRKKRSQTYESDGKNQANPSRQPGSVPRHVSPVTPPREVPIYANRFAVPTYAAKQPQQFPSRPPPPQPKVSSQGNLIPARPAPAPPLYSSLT
UniProt Q96I99, sequence (Q96I99 whole entry): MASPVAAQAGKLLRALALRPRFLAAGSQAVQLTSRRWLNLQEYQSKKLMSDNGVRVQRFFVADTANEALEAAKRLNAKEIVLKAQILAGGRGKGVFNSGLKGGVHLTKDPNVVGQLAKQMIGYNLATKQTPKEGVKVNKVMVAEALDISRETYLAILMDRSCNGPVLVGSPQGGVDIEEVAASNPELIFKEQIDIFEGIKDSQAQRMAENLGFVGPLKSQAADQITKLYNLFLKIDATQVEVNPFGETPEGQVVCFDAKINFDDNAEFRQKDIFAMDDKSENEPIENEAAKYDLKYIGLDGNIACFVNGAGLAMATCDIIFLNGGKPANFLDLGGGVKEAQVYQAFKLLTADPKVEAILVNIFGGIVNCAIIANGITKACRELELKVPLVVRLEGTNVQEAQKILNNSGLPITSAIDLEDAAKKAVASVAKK

Take GTF3C1 (UniProt Q12789): the thermal stability z-score in test [1] (setting [3]) is 0.0666; in test [1] (arsenate co-treatment: none), -0.0357; in test [2], -0.534.
The corresponding values for HMGB3 (UniProt O15347) are 0.138, 0.323 and 0.0296.
The corresponding values for TXLNG (UniProt Q9NUQ3) are 0.386, 0.0198 and 1.86.
The corresponding values for ME3 (UniProt Q16798) are 1.29, 1.51 and 0.6.
As to ACAT2 (UniProt Q9BWD1), the results for the thermal stability z-score in test [1] (setting [3]), in test [1] (arsenate co-treatment: none) and in test [2] were -0.0152, 6.3e-05 and -0.347, respectively.
The corresponding values for CDC73 (UniProt Q6P1J9) are 0.521, 0.541 and 0.234.
Take FOSL2 (UniProt P15408): the figures for the thermal stability z-score in test [1] (setting [3]), in test [1] (arsenate co-treatment: none) and in test [2] were 1.86, 0.702 and -2.25, respectively.
Take PGGT1B (UniProt P53609): the thermal stability z-score was -0.242 in test [1] (setting [3]), 0.0735 in test [1] (arsenate co-treatment: none) and 0.268 in test [2].
The corresponding values for LMO7 (UniProt Q8WWI1) are 1.17, 0.27 and -1.54.
The corresponding values for DTD1 (UniProt Q8TEA8) are 0.65, 0.308 and 0.163.
The corresponding values for FOXO1 (UniProt Q12778) are -0.211, -0.123 and 0.182.
Take ABCC5 (UniProt O15440): the thermal stability z-score was 0.335 in test [1] (setting [3]), 0.0156 in test [1] (arsenate co-treatment: none) and -0.077 in test [2].
The corresponding values for TUBGCP5 (UniProt Q96RT8) are -0.335, -0.139 and -0.119.
The corresponding values for PGLS (UniProt O95336) are 0.924, -0.683 and -1.3.
The corresponding values for GSN (UniProt P06396) are 0.0431, -0.257 and 0.0381.
Take PNPLA4 (UniProt P41247): the thermal stability z-score in test [1] (setting [3]) was 0.634; in test [1] (arsenate co-treatment: none), 0.101; in test [2] it was 1.28.
The corresponding values for MOCOS (UniProt Q96EN8) are 0.344, 0.221 and -0.535.
Consider TMEM126B (UniProt Q8IUX1), for which the results for the thermal stability z-score in test [1] (setting [3]), in test [1] (arsenate co-treatment: none) and in test [2] were 1.31, 1.36 and 1.18, respectively.
For the target NT5DC2 (UniProt Q9H857), the results for the thermal stability z-score in test [1] (setting [3]), in test [1] (arsenate co-treatment: none) and in test [2] were 0.0403, -0.251 and 0.13, respectively.
The corresponding values for DOCK1 (UniProt Q14185) are -0.371, -1.05 and 0.0692.
The corresponding values for OPA3 (UniProt Q9H6K4) are 1.42, 0.732 and 0.247.
Consider RBM4 (UniProt Q9BWF3), for which the values for the thermal stability z-score in test [1] (setting [3]), in test [1] (arsenate co-treatment: none) and in test [2] were 0.135, 0.129 and 0.216, respectively.
The corresponding values for LASP1 (UniProt Q14847) are 0.387, 0.383 and -0.178.
Take HEATR1 (UniProt Q9H583): the thermal stability z-score in test [1] (setting [3]) is -1.73; in test [1] (arsenate co-treatment: none), -1.13; in test [2], -0.114.
The corresponding values for ZNF330 (UniProt Q9Y3S2) are -0.367, -0.417 and -0.558.
In the case of SUCLG2 (UniProt Q96I99), the thermal stability z-score stood at 0.0359 in test [1] (setting [3]), 0.172 in test [1] (arsenate co-treatment: none) and 0.106 in test [2].
The corresponding values for ADAM9 (UniProt Q13443) are -0.535, -0.428 and 0.397.
